Measurements: patent US10085974B2, “Dosage and formulation” (Almirall, S.A., priority 2008, dated 2018)

How the values were obtained:
[1] = system: Patients with moderate to severe stable COPD; test: Spirometric measurements (FEV1) in a 4-week randomized once-daily trial in COPD patients; format: in vivo, human; conditions: for Mean change from baseline in trough FEV1 on Day 29 (Mean Δ): COPD patients
Experimental: (§1) Methods: Patients with moderate to severe stable COPD were randomized to receive double-blind, once-daily treatment with aclidinium (25, 50, 100, 200, or 400 μg), placebo, or open-label tiotropium 18 μg for 4 weeks. Spirometric measurements were performed at 22-24 h after the first dose and then at weekly intervals, and from 0.5-6 h post-administration on Day 1 and at Week 4 (Day 29).

[2] = system: Patients with moderate to severe stable COPD; test: Tolerability (ECG, laboratory parameters, adverse events) in the 4-week COPD trial; format: in vivo, human; conditions: aclidinium 25-400 μg once daily, 4 weeks
Experimental: as §1

| SMILES | Mean change from baseline in trough FEV1 on Day 29 (Mean Δ) ([1]; aclidinium 25 μg once daily, double-blind, 4 weeks, inhaled) [mL] | Mean change from baseline in trough FEV1 on Day 29 (Mean Δ) ([1]; aclidinium 50 μg once daily, double-blind, 4 weeks) [mL] | Mean change from baseline in trough FEV1 on Day 29 (Mean Δ) ([1]; aclidinium 100 μg once daily, double-blind, 4 weeks) [mL] | Mean change from baseline in trough FEV1 on Day 29 (Mean Δ) ([1]; aclidinium 200 μg once daily, double-blind, 4 weeks, *p <0.05 vs placebo) | Mean change from baseline in trough FEV1 on Day 29 (Mean Δ) ([1]; aclidinium 400 μg once daily, double-blind, 4 weeks, *p <0.05 vs placebo) | Effect on trough FEV1 on Day 29 ([1]; aclidinium 25-400 μg once daily, 4 weeks) | Bronchodilatory effect compared with open-label tiotropium 18 μg ([1]; aclidinium 200 and 400 μg) | Bronchodilatory effect during the first 6 h post-dose on Day 29 ([1]; all doses, compared with Day 1) | Duration of bronchodilation ([1]; once-daily aclidinium) | Time to peak FEV1 ([1]; post-dose, aclidinium 100-400 μg) [h] | Effect on ECG, laboratory parameters or adverse events [2] | Tolerability [2] | Mean change from baseline in trough FEV1 on Day 29 (Mean Δ) ([1]; tiotropium 18 μg once daily, open-label, 4 weeks, *p <0.05 vs placebo) |
| --- | --- | --- | --- | --- | --- | --- | --- | --- | --- | --- | --- | --- | --- |
| O=C(O[C@H]1C[N+]2(CCCOc3ccccc3)CCC1CC2)C(O)(c1cccs1)c1cccs1.[Br-] [Aclidinium, 3(R)-(2-hydroxy-2,2-dithien-2-ylacetoxy)-1-(3-phenoxypropyl)-1-azoniabicyclo[2.2.2]octane bromide] | 39 | 36 | 83 | 148* ml | 128* ml | dose-dependently increased | comparable bronchodilatory effects | comparable to that on Day 1 | sustained bronchodilation over 24 h | 3 | no dose-dependent effect | well tolerated | – |
| C[N+]1(C)[C@@H]2C[C@@H](OC(=O)C(O)(c3cccs3)c3cccs3)C[C@H]1[C@@H]1O[C@@H]12 [Tiotropium, reference compound] | – | – | – | – | – | – | – | – | – | – | – | – | 161* ml |
